From PMC6687188, “Novel lactate dehydrogenase inhibitors with in vivo efficacy against Cryptosporidium parvum” (PLoS Pathogens, 2019)

Molecular target: recombinant CpLDH protein (Cryptosporidium parvum, UniProt Q9GT92, F198L/K295E/R251K)

Row | Compound | MEAN CpLDH INHIBITION (%)
1 | NC(=Nc1nc(-c2ccccn2)cc2ccccc12)c1ccccn1 [NSC637578] | -28.84
2 | CCOc1ccccc1NC(=O)CC1Sc2ccccc2NC1=O (stereo not shown) [NSC637680] | -16.33
3 | O=C1C=C(Nc2cccnc2)c2ccccc2C1=O [NSC637729] | -66.55
4 | O=C1C=C(NCCc2ccccc2)c2ccccc2C1=O [NSC637731] | -17.56
5 | CC(=O)SC(SC(C)=O)SC(C)=O [NSC637833] | -64.71
6 | N#CCCN(c1ccc(C=O)cc1)S(=O)(=O)c1ccccc1 [NSC637914] | -47.07
7 | N#CCCN(CCC#N)c1ccc(/C=C2\N=C(c3cc([N+](=O)[O-])ccc3Cl)OC2=O)cc1 [NSC637916] | -14.05
8 | CCN(CC)CCNc1ccc2nc(C)n3c4ccc(OC)cc4c(=O)c1c23 [NSC637993] | -46.33
9 | O=C1/C(=C\c2ccc(Cl)c(Cl)c2)CN(C(=O)CCN2CCOCC2)C/C1=C\c1ccc(Cl)c(Cl)c1 [NSC638646] | -17.60
10 | CCOC(=O)Nc1nc2ccc(Cn3cccc3)cc2[nH]1 [NSC639754] | -8.79
11 | Nc1ccccc1C(=O)NC(=O)Nc1ccc(Oc2ncc(Br)cn2)c(Cl)c1 [NSC639828] | -42.32
12 | Cc1nc(Nc2ccc(Cl)c(Cl)c2)sc1C(/C=C/c1ccc2c(c1)OCO2)=N/Nc1ccc([N+](=O)[O-])cc1[N+](=O)[O-] [NSC640335] | -79.51
13 | Cc1ccc(Nc2nc(C)c(C(/C=C/c3ccc(/C=C/C(=N\NC(=O)C[n+]4ccccc4)c4sc(Nc5ccc(C)cc5[N+](=O)[O-])nc4C)cc3)=N/NC(=O)C[n+]3ccccc3)s2)c([N+](=O)[O-])c1.Cl [NSC640342] | -89.53
14 | CN(C)C[C@H]1CC[C@@H](CN(C)C)C1=O.Cl [NSC640391] | -1.88
15 | Cc1nc(-c2cccnc2)sc1C(=O)/C=C/c1ccc(Cl)cc1Cl [NSC640580] | -13.66
16 | Cc1nc(-n2nc(-c3ccccc3)cc2-c2ccccc2)sc1C(=O)/C=C/c1ccc(Cl)c(Cl)c1 [NSC640584] | -6.68
17 | CC1=CC(C)(C)N=C2SC(c3ccc(N)cc3)=NN12 [NSC640624] | -5.57
18 | S=C(Nc1ccccc1)N(/N=C/C=C/c1ccccc1)c1nnc(-c2ccccc2)c(-c2ccccc2)n1 [NSC640637] | -17.02
19 | BrC(/C=N/Nc1nnc(-c2ccccc2)c(-c2ccccc2)n1)C(Br)c1ccccc1 (stereo not shown) [NSC640638] | -14.60
20 | N#Cc1ccccc1NC(=O)C(=O)C(C(=O)c1ccccc1F)C1OC(=O)c2ccccc21 (stereo not shown) [NSC640974] | -7.97
21 | Cc1ccc(C)c(NC(=O)C(=O)C(C(=O)c2ccc3ccccc3c2)C2OC(=O)c3ccccc32)c1 (stereo not shown) [NSC640985] | -66.15
22 | Cc1ccccc1NC(=O)C(=O)C(C(=O)c1ccccc1F)C1OC(=O)c2ccccc21 (stereo not shown) [NSC641228] | -51.30
23 | O=C(NC1=C(Cl)C(=O)c2ccccc2C1=O)C(=O)C(C(=O)c1ccc2ccccc2c1)C1OC(=O)c2ccccc21 (stereo not shown) [NSC641233] | -51.96
24 | COC(=O)c1ccccc1NC(=O)C(=O)CC(=O)c1ccccc1NC1=CC(=O)C(=O)c2ccccc21 [NSC641240] | -190.19
25 | O=C(CC(=O)c1ccccc1NC1=Cc2ccccc2C(=O)C1=O)C(=O)NC1=C(Cl)C(=O)c2ccccc2C1=O [NSC641245] | -19.61
26 | O=C1C=C(Nc2ccccc2C(=O)CC(=O)C(=O)Nc2ccc(Cl)c(Cl)c2)c2ccccc2C1=O [NSC641250] | -16.86
27 | O=C1C=C(Nc2ccccc2C(=O)CC(=O)C(=O)Nc2ccc(Cl)cc2)c2ccccc2C1=O [NSC641253] | -12.80
28 | COc1ccc(/C(=N/O)C(c2ccc(OC)cc2)C2C(=O)Oc3ccccc32)cc1 (stereo not shown) [NSC641607] | -85.63

Row | Compound | MEAN CpLDH INHIBITION (%)
29 | CCc1cccc(C(C)C)c1NC(=O)/C(=N\NC(N)=O)C(C(=O)OC)c1cnc2ccccc2n1 (stereo not shown) [NSC642033] | -12.26
30 | COC(=O)C(=O)C(C(=O)C(=O)Nc1cc(C)ccc1C)c1nc2ccc(C(=O)c3ccccc3)cc2[nH]c1=O (stereo not shown) [NSC642040] | -9.38
31 | Cc1nc(C(N)=S)sc1C(=O)CC(=O)C(=O)Nc1c(C(C)C)cccc1C(C)C [NSC642048] | -4.29
32 | O=C(c1nc2ccc(Cl)cc2[nH]c1=O)C(O)c1ccc2c(c1)OCO2 (stereo not shown) [NSC642649] | -27.23
33 | N#CC(C#N)=Cc1ccc(Oc2ccccc2)cc1 [NSC643028] | -52.45
34 | N#CC(C#N)=Cc1cccc(Oc2ccccc2)c1 [NSC643031] | -51.68
35 | O=C1c2ccccc2C(=O)C1C(c1ccc([N+](=O)[O-])cc1)C1C(=O)c2ccccc2C1=O [NSC643148] | -12.75
36 | CN(C)c1ccc(/C=C2\CCc3ccccc3C2=O)cc1Br [NSC643162] | -31.17
37 | CN(C)c1ccc(/C=C2\Cc3ccccc3C2=O)cc1Br [NSC643163] | -30.02
38 | CN(C)c1ccc(/C=C/C(=O)c2ccccc2)cc1Br [NSC643164] | -21.20
39 | COc1ccc(/C=C2\Cc3ccccc3C2=O)cc1OC [NSC643174] | -15.39
40 | COc1ccc(/C=C2\CCc3ccccc3C2=O)cc1OC [NSC643175] | -25.23
41 | N#C/C(=C\c1ccc2ccccc2c1)C(=O)c1ccccc1 [NSC643186] | -12.83
42 | CN(C)c1ccc(/C=C/C(=O)[O-])cc1.CN(C)c1ccc(/C=C/C(=O)[O-])cc1.[Cu+2] [NSC643351] | -4.10
43 | COc1ccc(N=Cc2ccc(N(CCC#N)S(=O)(=O)c3ccccc3)cc2C)cc1 [NSC643599] | -33.57
44 | CCOC(=O)/C(=C/c1ccc(N(C)C)cc1)N(CC)CC [NSC643774] | -24.42
45 | CCCC/C=C/C=C/C=C/CCCCCCCC(=O)OCC(COC(=O)CCCCCCC/C=C/C1C=CC(CCCC)C(C(=O)O)C1C(=O)O)OC(=O)CCCCCCC/C=C/C=C/C=C/CCCC.OCCNCO (stereo not shown) [NSC643834] | -1.59
46 | CCOC(=O)C1=C(C)NC(=S)NC1c1ccccc1 (stereo not shown) [NSC643910] | -38.49
47 | Cc1ccccc1NC(=O)C(=O)C(c1cnc2ccc([N+](=O)[O-])cc2n1)[N+](=O)[O-] (stereo not shown) [NSC644735] | -56.47
48 | O=C(Nc1cccc(C(F)(F)F)c1)C(=O)C(C(=O)c1ccc(Cl)c(Cl)c1)C1OC(=O)c2ccccc21 (stereo not shown) [NSC644794] | -17.50
49 | Clc1ccc(-c2c(C3=NCCCN3)nnn2-c2ccc(Cl)cc2)cc1 [NSC645033] | -3.66
50 | CC(C)OP(=O)(OC(C)C)C(N(C)C)P(=O)(OC(C)C)OC(C)C.[Cl][Sn]([Cl])([Cl])[c]1ccccc1 [NSC645567] | -28.84
51 | CN(C)C(=S)/N=c1\ssc(=S)n1Cc1ccccn1 [NSC645617] | -28.16
52 | Oc1cc(-n2cccn2)c(O)cc1-n1cccn1 [NSC645987] | -40.48
53 | CCOC(OC1=C(C#N)CCC1)C(C)[Se]c1ccccc1 (stereo not shown) [NSC646189] | -21.95
54 | CCOC(OCC)C(CC)[Se]c1ccccc1[N+](=O)[O-] (stereo not shown) [NSC646200] | -24.52
55 | COc1cc(/C=C(\OC(C)=O)c2ccc3c(c2)OCO3)cc(OC)c1OC [NSC647363] | -3.74
